Data published in patent US10479766B2, “Deuterated CFTR potentiators” (Vertex Pharmaceuticals (Europe) Limited, priority 2011, dated 2019).
Several values for one entry are separate records, joined by “and”; a condition that tells them apart may be missing. Identical values can stand only once. Like-named read-outs stand apart in the source and are kept apart here.

Experiments:
[1] = Pharmacokinetics in rats after oral gavage; type: in vivo; conditions: rat, PO 10 mg/kg in 100% PEG400, plasma; for half-life: plasma, po, 10 mg/kg
Experimental: Ivacaftor, compound 105 and compound 106 were discrete dosed to rats via oral gavage (PO). Each compound was administered at a dose of 10 mg/kg to three rats (N=3 rats/compound; total of 9 rats in the study). […] Blood samples were centrifuged to obtain plasma. Plasma samples were analyzed for concentrations of the dosed compound at each time point using LC-MS/MS. The limit of quantitation of each compound was 1 ng/mL.

[2] = tested on: patients with cystic fibrosis carrying at least one copy of the G551D-CFTR mutation; conditions: phase III trials; cited from earlier work
[3] = individual animals, read-out: t1/2 (hr), individual animal (converted)
[4] = mean of N=3 rats, read-out: t1/2 (hr), Mean (converted)

t1/2 (hr), individual animal ([1]; individual animals)	half-life [1, 3] [h]	half-life [1, 4] [h]	Compound	lung function and other key indicators of the disease (sweat chloride levels, likelihood of pulmonary exacerbations, body weight) [2]
16.33 h and 14.39 h	13.8	14.8	[2H]C([2H])([2H])C(c1cc(C(C([2H])([2H])[2H])(C([2H])([2H])[2H])C([2H])([2H])[2H])c(NC(=O)c2c[nH]c3ccccc3c2=O)cc1O)(C([2H])([2H])[2H])C([2H])([2H])[2H] [Compound 105, N-(2,4-Di-(tert-butyl-d9)-5-hydroxyphenyl)-4-oxo-1,4-dihydroquinoline-3-carboxamide]	
14.28 h and 11.92 h	13.5	13.2	[2H]C([2H])([2H])C(c1cc(C(C)(C)C)c(NC(=O)c2c[nH]c3ccccc3c2=O)cc1O)(C([2H])([2H])[2H])C([2H])([2H])[2H] [Compound 106, N-(2-(tert-Butyl)-4-(tert-butyl-d9)-5-hydroxyphenyl)-4-oxo-1,4-dihydroquinoline-3-carboxamide]	
12.43 h and 10.01 h	9.03	10.5	CC(C)(C)c1cc(C(C)(C)C)c(NC(=O)c2c[nH]c3ccccc3c2=O)cc1O [Ivacaftor, N-(2,4-di-tert-butyl-5-hydroxyphenyl)-4-oxo-1,4-dihydroquinoline-3-carboxamide, reference compound]	marked levels of improvement
